3 compounds from patent US5238922A, “Inhibitors of farnesyl protein transferase” (Merck & Co., Inc., priority 1991, dated 1993) can be followed below.

In experiment [1] the target is T1, Farnesyl-protein transferase (FTase) from bovine brain (Bos taurus, UniProt P29702+P49355).
T1 construct: incubated with this partially purified enzyme preparation; from tissue; host or cells: bovine brain
Kind of experiment: In vitro inhibition of Ras Farnesyl Transferase. Particulars: partially purified bovine brain FTase; Ras-CVLS 3.5 μM, 0.25 μM [3H]FPP; read-out: IC50 (concentration of compound which gives 50% inhibition of FTase). The format is biochemical. On the procedure:
Farnesyl-protein transferase (FTase) from bovine brain was chromatographed on DEAE-Sephacel (Pharmacia, 0-0.8M NaCl gradient elution), N-octyl agarose (Sigma, 0-0.6M NaCl gradient elution),, and a mono Q HPLC column (Pharmacia, 0-0.3M NaCl gradient). Ras-CVLS at 3.5 μM, 0.25 μM [^3 H]FPP, and the indicated compounds were incubated with this partially purified enzyme preparation. The FTase data presented below is a measurement of the ability of the test compound to inhibit Ras farnesylation in vitro.

Experiment [2] deals with Ras farnesylation in the v-ras cell line (viral Ha-ras p21). Kind of experiment: In vivo ras farnesylation assay (v-ras cell line). It is filed as cell-based. The method, then:
The cell line used in this assay was the v-ras line, which expressed viral Ha-ras p21. The assay was performed essentially as described in DeClue, J. E. et. al., Cancer Research 51, 712-717, (1991). Cells in 10 cm dishes at 50-75% confluency were treated with the test compound (final concentration of solvent, methanol or dimethyl sulfoxide, was 0.1%). After 4 hours at 37° C., the cells were labelled in 3 ml methionine-free DMEM supplemented with 10% regular DMEM, 2% fetal bovine serum and 400 μCi[^35 S]methionine (1000 Ci/mmol). After an additional 20 hours, the cells were lysed in 1 ml lysis buffer (1% NP40/20 mM HEPES, pH 7.5/5 mM MgCl2 /1 mM DTT/10 μg/ml aprotinen/2 μg/ml leupeptin/2 μg/ml antipain/0.5 mM PMSF) and the lysates cleared by centrifugation at 100,000×g for 45 min. Aliqouts of lysates containing equal numbers of acid-precipitable counts were bought to 1 ml with IP buffer (lysis buffer lacking DTT) and immunoprecipitated with the ras-specific monoclonal antibody Y13-259 (Furth, M. E. et. al., J. Virol. 43, 294-304, (1982)). Following a 2 hour antibody incubation at 4° C., 200 μl of a 25% suspension of protein A-Sepharose coated with rabbit anti rat IgG was added for 45 min. […]

For the compound `CCOC(=O)[C@H](CCSC)NC(=O)[C@H](Cc1ccccc1)NC(=O)[C@@H](NC[C@@H](N)CS)[C@@H](C)CC` [N-(2(R)-amino-3-mercaptopropyl)isoleucyl-phenylalanyl-methionine ethyl ester], the IC50 in experiment [1] was determined as 2000 nM. For the same compound, the “Inhibition of Ras Farnesylation in the v-ras cell line” value in experiment [2] (at 10 μm test concentration) amounted to 10%.
Turning to `CC[C@H](C)[C@@H](CN[C@@H](Cc1ccccc1)C(=O)N[C@@H](CCSC)C(=O)O)NC[C@@H](N)CS` [N-[2(S)-(2(R)-amino-3-mercaptopropylamino)-3(S)-methylpentyl]phenylalanyl-methionine], the IC50 in experiment [1] was determined as 4.7 nM. The “Inhibition of Ras Farnesylation in the v-ras cell line” value in experiment [2] (at 100 μm test concentration) is recorded as 30%.
Turning to `CSCC[C@H](NC(=O)[C@H](Cc1ccccc1)NC[C@@H](NC(=O)[C@@H](N)CS)C(C)C)C(=O)O` [N-(3-methyl-2(S)-(cysteinylamino)but-1-yl)phenylalanyl-methionine], the IC50 in experiment [1] was determined as 7 nM.
